From US3991199A, “Pyridoindoles” (Endo Laboratories, Inc., priority 1974, dated 1976)
Where a name gives a salt, the structure may show the parent alone. Read-outs that look alike come from different tables or passages of the source.

Tests used:
[1] = system: blood pressure; assay: Hypotensive (Hypo): blood pressure in conscious rats; format: in vivo; details: Rattus norvegicus, oral dose, read-out: Hypo rat MED
[2] = system: phenyl-p-benzoquinone writhing; assay: Phenylquinone Writhing (PQW), analgesic; format: in vivo; details: po, read-out: PQW mouse ED50
[3] = system: locomotor activity; assay: Decreased Locomotor Activity (LMA), sedative; format: in vivo, mouse; details: for minimal effective dose: po, read-out: LMA mouse MED
[4] = system: conditioned avoidance response; assay: Rat Conditioned Avoidance Response (CAR), major tranquilizer; format: in vivo; details: for ED50: po, read-out: CAR rat ED50
[5] = system: conflict (approach-avoidance); assay: Rat Conflict (Approach-Avoidance) Test (Conf), minor tranquilizer; format: in vivo; details: for minor tranquilizing (anxiolytic) activity: in words
[6] = system: pressor response to epinephrine and/or nor-epinephrine; assay: Adrenergic Blockage (AB); format: in vivo; details: Canis lupus familiaris; intravenous, dog; read-out: AB dog MED
[7] = U.S. Pat. No. 3,657,254; cited from earlier work
[8] = system: conflict (approach-avoidance); details: in words, background statement; cited from earlier work

Question: For `c1ccc(N2c3ccccc3[C@@H]3CN(CC4CCCC4)CC[C@H]32)cc1` (racemic) [compound 2 of Table II, (±)-trans-2-(cyclopentylmethyl)-2,3,4,4a,5,9b-hexahydro-5-phenyl-1H-pyrido[4,3-b]indole], which minimal effective dose [1] is on record?
Answer: 10 mg/kg

Question: And the ED50 ([2]; mouse)?
Answer: 1 mg/kg

Question: And the minimal effective dose ([3]; mouse)?
Answer: 10 mg/kg

Question: What about the “major tranquilizing (antipsychotic) activity” value (from here on “major tranquilizing”) ([4]; in words) of the same compound?
Answer: major tranquilizer (antipsychotic) activity

Question: What about the ED50 ([4]; rat) of the same compound?
Answer: 5 mg/kg

Question: And the “Conf rat MED” value ([5]; po, rat)?
Answer: I

Question: And the minimal effective dose [6]?
Answer: 0.03 mg/kg

Question: What does the source list for `Cl.c1ccc(N2c3ccccc3[C@@H]3CN(CC45CC6CC(CC(C6)C4)C5)CC[C@H]32)cc1` (racemic) [compound 4 of Table II, (±)-trans-2-(1-adamantylmethyl)-2,3,4,4a,5,9b-hexahydro-5-phenyl-1H-pyrido[4,3-b]indole, hydrochloride]?
Answer: ED50 ([2]; mouse): 19 mg/kg; minimal effective dose ([3]; mouse): 30 mg/kg; major tranquilizing (antipsychotic) activity ([4]; in words): exhibit major tranquilizing (antipsychotic) activity; ED50 ([4]; rat): 50 mg/kg; minor tranquilizing (anxiolytic) activity [5]: exhibit minor tranquilizing (anxiolytic) activity at doses which are not sedating; minimal effective dose ([5]; po, rat, read-out: Conf rat MED): 10 mg/kg; minimal effective dose ([5]; po, rat, comparison table, read-out: Rat Conf.): 10 mg/kg; minimal effective dose [6]: > 1 mg/kg

Question: With `Cl.c1ccc(N2c3ccccc3[C@@H]3CN(CC4C5CC6CC(C5)CC4C6)CC[C@H]32)cc1` (mixture of isomers) [compound 14 of Table II, (±)-trans-2-(2-adamantylmethyl)-2,3,4,4a,5,9b-hexahydro-5-phenyl-1H-pyrido[4,3-b]indole, hydrochloride] as the compound, how does the ED50 ([2]; mouse) read?
Answer: 27 mg/kg

Question: What about the minimal effective dose ([3]; mouse) of the same compound?
Answer: 2 mg/kg

Question: And the “major tranquilizing” value ([4]; in words)?
Answer: exhibit major tranquilizing (antipsychotic) activity

Question: And the “minor tranquilizing (anxiolytic) activity” value [5]?
Answer: exhibit minor tranquilizing (anxiolytic) activity at doses which are not sedating

Question: What about the “Conf rat, active dose” value ([5]; po, rat, ** active at this dose, MED not yet determined) of the same compound?
Answer: 10 mg/kg

Question: For `c1ccc(N2c3ccccc3[C@@H]3CN(CC4CCCCC4)CC[C@H]32)cc1` (relative stereo), which minimal effective dose [1] is on record?
Answer: 10 mg/kg

Question: What about the ED50 ([2]; mouse) of the same compound?
Answer: 4 mg/kg

Question: And the minimal effective dose ([3]; mouse)?
Answer: 3 mg/kg

Question: And the ED50 ([4]; rat)?
Answer: 20 mg/kg

Question: What about the “Conf rat MED” value ([5]; po, rat) of the same compound?
Answer: I

Question: What about the minimal effective dose [6] of the same compound?
Answer: 0.03 mg/kg

Question: With `CC12CCC(CN3CC[C@@H]4[C@@H](C3)c3ccccc3N4c3ccccc3)(CC1)CC2` (relative stereo) as the compound, how does the ED50 ([2]; mouse) read?
Answer: 80 mg/kg

Question: And the minimal effective dose ([3]; mouse)?
Answer: 30 mg/kg

Question: With `CC(Cl)=CCN1CC[C@@H]2[C@@H](C1)c1ccccc1N2c1ccccc1` (relative stereo) as the compound, how does the ED50 ([2]; mouse) read?
Answer: 2 mg/kg

Question: What about the minimal effective dose ([3]; mouse) of the same compound?
Answer: 1 mg/kg

Question: With `c1ccc(CCN2CC[C@@H]3[C@@H](C2)c2ccccc2N3c2ccccc2)cc1` (relative stereo) as the compound, how does the ED50 ([2]; mouse) read?
Answer: 2 mg/kg

Question: What about the minimal effective dose ([3]; mouse) of the same compound?
Answer: 10 mg/kg

Question: For `CC12C=CC(CN3CC[C@@H]4[C@@H](C3)c3ccccc3N4c3ccccc3)(CC1)CC2` (relative stereo), which ED50 ([2]; mouse) is on record?
Answer: 14 mg/kg

Question: What about the minimal effective dose ([3]; mouse) of the same compound?
Answer: 30 mg/kg

Question: Which results are given for `C1=CCC(CN2CC[C@@H]3[C@@H](C2)c2ccccc2N3c2ccccc2)CC1` (relative stereo)?
Answer: ED50 ([2]; mouse): 2 mg/kg; minimal effective dose ([3]; mouse): 3 mg/kg

Question: With `Cc1ccc2c(c1)[C@@H]1CN(C)CC[C@@H]1N2` (relative stereo) [2,8-dimethyl-2,3,4,4a,5,9b-hexahydro-1H-pyrido[4,3-b]]indole] as the compound, how does the mechanism of action [7] read?
Answer: adrenergic blockade

Question: What about the psychotropic effects [7] of the same compound?
Answer: neuroleptic, antidepressive, and energizing effects

Question: What does the source list for `c1ccc(N2c3ccccc3[C@@H]3CN(C[C@H]4[C@@H]5CCCC[C@@H]54)CC[C@H]32)cc1` (relative stereo) [compound 9 of Table II, (±)-trans-2,3,4,4a,5,9b-hexahydro-2-(exo-7-norcarylmethyl)-5-phenyl-1H-pyrido[4,3-b]indole, hydrochloride]?
Answer: ED50 ([2]; mouse): 1 mg/kg; reducing locomotor activity ([3]; in words): potency in reducing locomotor activity; minimal effective dose ([3]; mouse): 0.1 mg/kg

Question: Which ED50 ([2]; Mus musculus) does the source give for `CC(=O)Oc1ccccc1C(=O)O` [aspirin, reference compound] here?
Answer: 94 mg/kg

Question: Which minimal effective dose ([3]; Mus musculus) does the source give for `CN(C)CCCN1c2ccccc2Sc2ccc(Cl)cc21` [chlorpromazine, reference compound] here?
Answer: 2 to 10 mg/kg

Question: What about the ED50 ([4]; Rattus norvegicus) of the same compound?
Answer: 6 mg/kg

Question: What about the “Conf rat MED” value ([5]; rat, in vivo, po) of the same compound?
Answer: I

Question: Which ED50 ([2]; Mus musculus) does the source give for `COc1ccc2c3c1O[C@H]1[C@@H](O)C=C[C@H]4[C@@H](C2)N(C)CC[C@@]341` [codeine phosphate, reference compound] here?
Answer: 19 mg/kg

Question: With `c1ccc(N2c3ccccc3[C@@H]3CN(CC4CCC4)CC[C@H]32)cc1` [compound of Example 2, (+)-trans-2-(cyclobutylmethyl)-2,3,4,4a,5,9b-hexahydro-5-phenyl-1H-pyrido[4,3-b]indole] as the compound, how does the minimal effective dose [1] read?
Answer: 3 mg/kg

Question: And the minimal effective dose ([3]; Mus musculus)?
Answer: 3 mg/kg

Question: And the ED50 ([4]; Rattus norvegicus)?
Answer: 4 mg/kg

Question: And the “major tranquilizing” value ([4]; rat, in vivo)?
Answer: major tranquilizer (antipsychotic) activity

Question: And the “Conf rat MED” value ([5]; rat, in vivo, po)?
Answer: I

Question: Which minimal effective dose ([3]; Mus musculus) does the source give for `CN1C(=O)CN=C(c2ccccc2)c2cc(Cl)ccc21` [diazepam, reference compound] here?
Answer: 3 to 10 mg/kg

Question: What about the “effect in conflict test” value [8] of the same compound?
Answer: apparent decreased fear in the test animals

Question: What about the minimal effective dose ([5]; Rattus norvegicus, po, read-out: Conf rat MED, with ataxia) of the same compound?
Answer: 3 to 10 mg/kg

Question: What about the minimal effective dose ([5]; Rattus norvegicus, po, read-out: Rat Conf.) of the same compound?
Answer: 3 to 10 mg/kg

Question: With `CCCC(C)(COC(N)=O)COC(N)=O` [meprobamate] as the compound, how does the “effect in conflict test” value [8] read?
Answer: apparent decreased fear in the test animals
